Results reported in PubChem BioAssay AID1963981 (Molecular Pharmacology Branch, DTP, NCI, 2024).

Test system: 354836-022-R-J1-PDC multicell spheroid viability
Test: Anticancer human tumor 354836-022-R-J1-PDC patient-derived head and neck squamous cell carcinoma cell line growth inhibition [PI3K]
Conditions: for IC50: curve of first compound; for viability, T/C: stronger effect = lower value
How it was run: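 Viability of mixed-cell spheroids was determined after exposure to pairwise combinations, one partner being inavolisib, alpelisib, duvelisib or copanlisib. Highest tested concentration matched clinical Cmax where known and 10 microM where not, descending in half-log steps.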

[1] = second compound 0.0316 µM, first compound 0.0316 µM
[2] = second compound 0.0316 µM, first compound 0.1 µM
[3] = second compound 0.0316 µM, first compound 0.316 µM
[4] = second compound 0.0316 µM, first compound 1 µM
[5] = second compound 0.0316 µM, first compound 3.16 µM
[6] = second compound 0.0316 µM, first compound 10 µM
[7] = second compound 0.1 µM, first compound 0.0316 µM
[8] = second compound 0.1 µM, first compound 0.1 µM
[9] = second compound 0.1 µM, first compound 0.316 µM
[10] = second compound 0.1 µM, first compound 1 µM
[11] = second compound 0.1 µM, first compound 3.16 µM
[12] = second compound 0.1 µM, first compound 10 µM
[13] = second compound 0.316 µM, first compound 0.0316 µM
[14] = second compound 0.316 µM, first compound 0.1 µM
[15] = second compound 0.316 µM, first compound 0.316 µM
[16] = second compound 0.316 µM, first compound 1 µM
[17] = second compound 0.316 µM, first compound 3.16 µM
[18] = second compound 0.316 µM, first compound 10 µM
[19] = second compound 1 µM, first compound 0.0316 µM
[20] = second compound 1 µM, first compound 0.1 µM
[21] = second compound 1 µM, first compound 0.316 µM
[22] = second compound 1 µM, first compound 1 µM
[23] = second compound 1 µM, first compound 3.16 µM
[24] = second compound 1 µM, first compound 10 µM
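Further: spheroids exposed to agents for seven days before the viability read.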

`CC1(C)CCC(Nc2ncc(C(F)(F)F)c(-c3c[nH]c4c(P(C)(C)=O)c(C#N)ccc34)n2)CN1` (stereo unspecified) + CC(Nc1ccc2c(c1)OCCn1cc(N3C(=O)OCC3C(F)F)nc1-2)C(N)=O showed an IC50 (second compound 0.00316 µM) of under 31.6 nM, an IC50 (second compound 0.01 µM) of under 31.6 nM and an IC50 (second compound 0.0316 µM) of under 31.6 nM. It also gave an IC50 (second compound 0.1 µM) of under 31.6 nM, an IC50 (second compound 0.316 µM) of under 31.6 nM and an IC50 (second compound 1 µM) of under 31.6 nM. It also gave a viability, T/C (second compound 0.00316 µM, first compound 0.0316 µM) of 21.5%, a viability, T/C (second compound 0.00316 µM, first compound 0.1 µM) of 18.9% and a viability, T/C (second compound 0.00316 µM, first compound 0.316 µM) of 21.4%. It also gave a viability, T/C (second compound 0.00316 µM, first compound 1 µM) of 22.9%, a viability, T/C (second compound 0.00316 µM, first compound 3.16 µM) of 32.5% and a viability, T/C (second compound 0.00316 µM, first compound 10 µM) of 2.76%. The viability, T/C (second compound 0.01 µM, first compound 0.0316 µM) was 28.1%, the viability, T/C (second compound 0.01 µM, first compound 0.1 µM) was 18.5% and the viability, T/C (second compound 0.01 µM, first compound 0.316 µM) was 27.8%. For the same molecule, the viability, T/C (second compound 0.01 µM, first compound 1 µM) was 25.4%, the viability, T/C (second compound 0.01 µM, first compound 3.16 µM) was 32.9% and the viability, T/C (second compound 0.01 µM, first compound 10 µM) was 2.41%. The viability, T/C [1] was 16.7%, the viability, T/C [2] was 21.1% and the viability, T/C [3] was 16.9%. It also gave a viability, T/C [4] of 19%, a viability, T/C [5] of 23.6% and a viability, T/C [6] of 1.33%. It also gave a viability, T/C [7] of 18.6%, a viability, T/C [8] of 15.8% and a viability, T/C [9] of 22.1%. For the same molecule, the viability, T/C [10] was 16.2%, the viability, T/C [11] was 22.3% and the viability, T/C [12] was 1.47%. For the same molecule, the viability, T/C [13] was 12.8%, the viability, T/C [14] was 15.8% and the viability, T/C [15] was 14.7%. For the same molecule, the viability, T/C [16] was 19.9%, the viability, T/C [17] was 18.3% and the viability, T/C [18] was 1.99%. The viability, T/C [19] was 14.1%, the viability, T/C [20] was 13% and the viability, T/C [21] was 14.1%. It also gave a viability, T/C [22] of 16.6%, a viability, T/C [23] of 19.3% and a viability, T/C [24] of 1.51%.
Molecule `CNC(=O)c1ccc(N2C(=S)N(c3ccc(C#N)c(C(F)(F)F)c3)C(=O)C2(C)C)cc1F` + CC(Nc1ncnc2nc[nH]c12)c1cc2cccc(Cl)c2c(=O)n1-c1ccccc1 has an IC50 (second compound 0.0316 µM) of over 10000 nM, an IC50 (second compound 0.1 µM) of over 10000 nM and an IC50 (second compound 0.316 µM) of over 10000 nM. The IC50 (second compound 1 µM) was over 10000 nM, the IC50 (second compound 3.16 µM) was over 10000 nM and the IC50 (second compound 10 µM) was over 10000 nM. For the same molecule, the viability, T/C [1] was 97.4%, the viability, T/C [2] was 99.1% and the viability, T/C [3] was 92.9%. It also gave a viability, T/C [4] of 93%, a viability, T/C [5] of 109% and a viability, T/C [6] of 95.8%. For the same molecule, the viability, T/C [7] was 95.2%, the viability, T/C [8] was 113% and the viability, T/C [9] was 109%. The viability, T/C [10] was 104%, the viability, T/C [11] was 94.4% and the viability, T/C [12] was 93.8%. The viability, T/C [13] was 100%, the viability, T/C [14] was 97.8% and the viability, T/C [15] was 97.6%. The viability, T/C [16] was 109%, the viability, T/C [17] was 105% and the viability, T/C [18] was 91.5%. It also gave a viability, T/C [19] of 97%, a viability, T/C [20] of 92.4% and a viability, T/C [21] of 95.9%. For the same molecule, the viability, T/C [22] was 117%, the viability, T/C [23] was 93.6% and the viability, T/C [24] was 95%. For the same molecule, the viability, T/C (second compound 3.16 µM, first compound 0.0316 µM) was 105%, the viability, T/C (second compound 3.16 µM, first compound 0.1 µM) was 106% and the viability, T/C (second compound 3.16 µM, first compound 0.316 µM) was 105%. The viability, T/C (second compound 3.16 µM, first compound 1 µM) was 108%, the viability, T/C (second compound 3.16 µM, first compound 3.16 µM) was 85.2% and the viability, T/C (second compound 3.16 µM, first compound 10 µM) was 95.5%. The viability, T/C (second compound 10 µM, first compound 0.0316 µM) was 89.3%, the viability, T/C (second compound 10 µM, first compound 0.1 µM) was 86.5% and the viability, T/C (second compound 10 µM, first compound 0.316 µM) was 94.5%. The viability, T/C (second compound 10 µM, first compound 1 µM) was 97%, the viability, T/C (second compound 10 µM, first compound 3.16 µM) was 95.3% and the viability, T/C (second compound 10 µM, first compound 10 µM) was 86.6%.
With `Cn1cnc2c(F)c(Nc3ccc(Br)cc3Cl)c(C(=O)NOCCO)cc21` + CC(Nc1ncnc2nc[nH]c12)c1cc2cccc(Cl)c2c(=O)n1-c1ccccc1 the IC50 (second compound 0.0316 µM) was over 3000 nM, the IC50 (second compound 0.1 µM) was 2650 nM and the IC50 (second compound 0.316 µM) was 2670 nM. The IC50 (second compound 1 µM) was over 3000 nM, the IC50 (second compound 3.16 µM) was over 3000 nM and the IC50 (second compound 10 µM) was over 3000 nM. For the same molecule, the viability, T/C (second compound 0.0316 µM, first compound 0.00949 µM) was 94.3%, the viability, T/C (second compound 0.0316 µM, first compound 0.03 µM) was 90.4% and the viability, T/C (second compound 0.0316 µM, first compound 0.0949 µM) was 87.4%. The viability, T/C (second compound 0.0316 µM, first compound 0.3 µM) was 71.9%, the viability, T/C (second compound 0.0316 µM, first compound 0.949 µM) was 69.4% and the viability, T/C (second compound 0.0316 µM, first compound 3 µM) was 49.4%. The viability, T/C (second compound 0.1 µM, first compound 0.00949 µM) was 89.9%, the viability, T/C (second compound 0.1 µM, first compound 0.03 µM) was 80.4% and the viability, T/C (second compound 0.1 µM, first compound 0.0949 µM) was 70.3%. The viability, T/C (second compound 0.1 µM, first compound 0.3 µM) was 81.3%, the viability, T/C (second compound 0.1 µM, first compound 0.949 µM) was 64.6% and the viability, T/C (second compound 0.1 µM, first compound 3 µM) was 47.7%. It also gave a viability, T/C (second compound 0.316 µM, first compound 0.00949 µM) of 89.7%, a viability, T/C (second compound 0.316 µM, first compound 0.03 µM) of 83.9% and a viability, T/C (second compound 0.316 µM, first compound 0.0949 µM) of 94.2%. The viability, T/C (second compound 0.316 µM, first compound 0.3 µM) was 72.1%, the viability, T/C (second compound 0.316 µM, first compound 0.949 µM) was 74.8% and the viability, T/C (second compound 0.316 µM, first compound 3 µM) was 46.6%. It also gave a viability, T/C (second compound 1 µM, first compound 0.00949 µM) of 90.5%, a viability, T/C (second compound 1 µM, first compound 0.03 µM) of 83.8% and a viability, T/C (second compound 1 µM, first compound 0.0949 µM) of 79.6%. For the same molecule, the viability, T/C (second compound 1 µM, first compound 0.3 µM) was 81.2%, the viability, T/C (second compound 1 µM, first compound 0.949 µM) was 74.5% and the viability, T/C (second compound 1 µM, first compound 3 µM) was 55.6%. For the same molecule, the viability, T/C (second compound 3.16 µM, first compound 0.00949 µM) was 99.5%, the viability, T/C (second compound 3.16 µM, first compound 0.03 µM) was 86.9% and the viability, T/C (second compound 3.16 µM, first compound 0.0949 µM) was 71.1%. It also gave a viability, T/C (second compound 3.16 µM, first compound 0.3 µM) of 88.8%, a viability, T/C (second compound 3.16 µM, first compound 0.949 µM) of 81% and a viability, T/C (second compound 3.16 µM, first compound 3 µM) of 63.5%. The viability, T/C (second compound 10 µM, first compound 0.00949 µM) was 85.5%, the viability, T/C (second compound 10 µM, first compound 0.03 µM) was 89.2% and the viability, T/C (second compound 10 µM, first compound 0.0949 µM) was 87.1%. For the same molecule, the viability, T/C (second compound 10 µM, first compound 0.3 µM) was 77.1%, the viability, T/C (second compound 10 µM, first compound 0.949 µM) was 68.2% and the viability, T/C (second compound 10 µM, first compound 3 µM) was 54.8%.
